In patent US20240408117A1, “COMPOSITIONS AND METHODS FOR TREATING HEMIPLEGIC MIGRAINE” (Schedule 1 Therapeutics, Inc., priority 2023, published 2024):
Values after ≈ are worked out from the molar mass of the structure shown.

Legend:
[1] = Solubility of cannabidiol in solvents, oils and buffers at 25° C.; format: physicochemical
[2] = Accelerated and long-term stability studies of cannabidiol (ICH Q1A (R2)); format: physicochemical; conditions: batches stored per ICH Q1A (R2)
Experimental: Manufacturing of all lots of cannabidiol was conducted in a manner consistent with Good Manufacturing Practices and ICH Q7 regulations. Consistent with these principles, and in direct regard to production of cannabidiol, the manufacturer conducted accelerated stability studies utilizing batches of cannabidiol manufactured at full scale. […]. In addition, the manufacturer has batches of cannabidiol on a long-term stability study. […] For these batches, the data and results from these stability studies are in compliance with documentation procedures.

OEL of cannabidiol = conditions: estimated
[3] = Solubility of dronabinol at 25° C.; format: physicochemical; conditions: for solubility: organic solvent or mixture
Experimental: Solubility at 25° C.: Dronabinol is immiscible in water.

[4] = Hygroscopicity of dronabinol by thermogravimetric analysis; format: physicochemical

Work on `C=C(C)[C@@H]1CCC(C)=C[C@H]1c1c(O)cc(CCCCC)cc1O` [Cannabidiol, 2-[(1R,6R)-3-methyl-6-prop-1-en-2-ylcyclohex-2-en-1-yl]-5-pentylbenzene-1,3-diol] yielded a solubility ([1]; Britton Robinson Buffer, aqueous buffer, BRB pH 6, 25° C.) of 0.00013 mg/mL (≈ 0.000413 mM), a solubility ([1]; Britton Robinson Buffer, aqueous buffer, BRB pH 8, 25° C.) of 0.00012 mg/mL (≈ 0.000382 mM) and a solubility ([1]; Britton Robinson Buffer, pH 4, aqueous buffer, BRB pH4, 25° C.) of 0.00011 mg/mL (≈ 0.00035 mM). For the same molecule, the solubility ([1]; Britton Robinson buffer, aqueous buffer, BRB pH 10, 25° C.) was 0.00013 mg/mL (≈ 0.000413 mM), the solubility ([1]; Britton Robinson buffer, aqueous buffer, BRB pH 11, 25° C.) was 0.00041 mg/mL (≈ 0.0013 mM) and the Solubility ([1]; Heptane, 25° C.) was 64.6 mg/mL (≈ 205 mM). It also gave a Solubility ([1]; Isooctane, 25° C.) of 43.9 mg/mL (≈ 140 mM), a Solubility ([1]; Water, 25° C.) of less than 0.1 mg/mL and a solubility ([1]; Water, 25° C.) of less than 0.1 mg/mL. It also gave a solubility ([1]; aqueous buffer, BRB (Britton Robinson Buffer) pH 2, 25° C.) of 0.00011 mg/mL (≈ 0.00035 mM), a solubility ([1]; aqueous buffer, Britton Robinson Buffers) of less than 0.1 mg/mL and a solubility ([1]; aqueous buffer, Phosphate Buffer pH 6.5 without SLS, 25° C.) of 0.00015 mg/mL (≈ 0.000477 mM). It also gave a solubility ([1]; aqueous with cosolvent or surfactant or cyclodextrin, Cremophor EL, 25° C.) greater than 100 mg/mL, a solubility ([1]; aqueous with cosolvent or surfactant or cyclodextrin, Tween 80, 25° C.) greater than 100 mg/mL and a Solubility ([1]; n-Decane, 25° C.) of 36.8 mg/mL (≈ 117 mM). It also gave a solubility ([1]; oil or lipid, Dodecane Oil, 25° C.) of 28 mg/mL (≈ 89 mM), a solubility ([1]; oil or lipid, Mineral Oil, 25° C.) of 16 mg/mL (≈ 50.9 mM) and a solubility ([1]; oil or lipid, Sesame Oil, 25° C.) of 216 mg/mL (≈ 687 mM). It also gave a solubility ([1]; oil or lipid, Sunflower Seed Oil, 25° C.) greater than 100 mg/mL, a solubility ([1]; organic solvent or mixture, 1,2-Dimethyloxyethane, 25° C.) greater than 100 mg/mL and a solubility ([1]; organic solvent or mixture, 1,4-dioxane, 25° C.) greater than 100 mg/mL. For the same molecule, the solubility ([1]; organic solvent or mixture, 1-Propanol, 25° C.) was greater than 100 mg/mL, the solubility ([1]; organic solvent or mixture, 2-Propanol (IPA), 25° C.) was greater than 100 mg/mL and the solubility ([1]; organic solvent or mixture, 2-butanone, 25° C.) was greater than 100 mg/mL. For the same molecule, the solubility ([1]; organic solvent or mixture, 2-methyl tetrahydrofuran (2-MeTHF), 25° C.) was greater than 100 mg/mL, the solubility ([1]; organic solvent or mixture, 2-methyl tetrahydrofuran saturated with water, 25° C.) was greater than 100 mg/mL and the solubility ([1]; organic solvent or mixture, Acetone, 25° C.) was greater than 100 mg/mL. The solubility ([1]; organic solvent or mixture, Acetonitrile (ACN), 25° C.) was greater than 100 mg/mL, the solubility ([1]; organic solvent or mixture, Anisole, 25° C.) was greater than 100 mg/mL and the solubility ([1]; organic solvent or mixture, Chloroform, 25° C.) was greater than 100 mg/mL. For the same molecule, the solubility ([1]; organic solvent or mixture, Cumene, 25° C.) was greater than 100 mg/mL, the solubility ([1]; organic solvent or mixture, Cyclohexane, 25° C.) was greater than 100 mg/mL and the solubility ([1]; organic solvent or mixture, DMSO, 25° C.) was greater than 100 mg/mL. For the same molecule, the solubility ([1]; organic solvent or mixture, Dichloromethane, 25° C.) was greater than 100 mg/mL, the solubility ([1]; organic solvent or mixture, Diethyl Ether, 25° C.) was greater than 100 mg/mL and the solubility ([1]; organic solvent or mixture, Ethanol (EtOH), 25° C.) was greater than 100 mg/mL. It also gave a solubility ([1]; organic solvent or mixture, Ethyl Acetate (EtOAc), 25° C.) greater than 100 mg/mL, a solubility ([1]; organic solvent or mixture, Ethyl Formate, 25° C.) greater than 100 mg/mL and a solubility ([1]; organic solvent or mixture, Isobutanol, 25° C.) greater than 100 mg/mL. For the same molecule, the solubility ([1]; organic solvent or mixture, Isopropyl Acetate (IPAc), 25° C.) was greater than 100 mg/mL, the solubility ([1]; organic solvent or mixture, Methanol (MeOH), 25° C.) was greater than 100 mg/mL and the solubility ([1]; organic solvent or mixture, N-methyl-pyrrolidone, 25° C.) was greater than 100 mg/mL. It also gave a solubility ([1]; organic solvent or mixture, Tetrahydrofuran, 25° C.) greater than 100 mg/mL, a solubility ([1]; organic solvent or mixture, Toluene, 25° C.) greater than 100 mg/mL and a solubility ([1]; organic solvent or mixture, all other solvents examined with the exception of heptane, n-decane and isooctane) greater than 100 mg/mL. The solubility ([1]; organic solvent or mixture, methylcyclohexane, 25° C.) was greater than 100 mg/mL, the solubility ([1]; organic solvent or mixture, n-hexane, 25° C.) was greater than 100 mg/mL and the solubility ([1]; organic solvent or mixture, p-Xylene, 25° C.) was greater than 100 mg/mL. The solubility ([1]; organic solvent or mixture, tert-Butyl methyl ether (MTBE), 25° C.) was greater than 100 mg/mL, the solubility ([1]; phosphate buffer with 0.4% SLS, aqueous with cosolvent or surfactant or cyclodextrin, Phosphate Buffer pH 6.5 with 0.4% SLS, 25° C.) was 0.00012 mg/mL (≈ 0.000382 mM) and the “Stability (impurity levels, assay)” value [2] was “no trends towards increased impurity levels or decrease in assay”. The OEL (OEL of cannabidiol) was 5-20 μg/m^3.

For `CCCCCc1cc(O)c2c(c1)OC(C)(C)[C@@H]1CCC(C)=C[C@@H]21` [Dronabinol, 2-(6aR,10aR) 6a,7,8,10a-tetrahydro-6,6,9-trimethyl-3-pentyl-6H-dibenzo[b,d]pyran-l-ol], the Solubility ([3]; Water) was “immiscible”, the solubility ([3]; Acetone) was 100 mg/mL (≈ 318 mM) and the solubility ([3]; Ethanol) was 100 mg/mL (≈ 318 mM). For the same molecule, the Hygroscopicity [4] was “non-hygroscopic” and the weight change ([4]; approximately 140° C.) was “less than 0.1%”.
